In general, EC50 refers to the concentration needed to bring the measured effect to its halfway point.

The assay has as its system Luciferase-encoding HCMV, AD169 strain. The assay is described as follows: CMV Luciferase assay (cellular herpesvirus replication). Format: cell-based. Conditions: Human betaherpesvirus 5, AD169, read-out: CMV-Luc Cellular EC50. The procedure:
For all viral assays, 10 mM DMSO stock compound solutions were serially diluted in DMSO at 3.16 fold dilutions in 96-well clear round bottom plates. Compounds were then diluted in assay media at 1:20 and subsequently 10 μL of these dilutions were added to cells for final compound concentrations ranging either from 0.0159 μM to 50 μM in 0.5% DMSO/assay media, or from 0.00318 to 10 μM in 0.5% DMSO/assay media.
The assay uses a Luciferase-encoding HCMV. Luciferase is expressed under the control of a late viral gene (pp28) promoter in the AD169 strain, so that expression of the reporter is dependent on viral DNA replication. Compounds that affect any stage from viral entry to DNA replication result in a change in luciferase levels.
Viral replication in the presence or absence of compounds was measured by luciferase activity according to the following procedure: Neo-natal normal human dermal fibroblast cells (NN-NHDF, from ATCC cat #201-010) were seeded at 9,000 cells/well in 96-well white solid bottom plate at 80 uL/well in assay media: 2% FBS, 4 mM GlutaMax® (Invitrogen cat #35050) in DMEM/high glucose/no glutamine/no phenol red media (Invitrogen cat #31053). After 2 hrs at 37° C., 10 uL of compound diluted in assay media or 5% DMSO (final 0.5% DMSO/well) was added and the plates returned to 37° C. One hour later, 10 uL of virus diluted in assay media was added at a final Multiplicity of infection (MOI) of 1. Plates were incubated at 37° C. for 72 hrs. At 72 hours post-infection (hpi), plates were equilibrated to room temperature. After 25 min, 100 uL Renilla-Glo® Luciferase Assay Reagent (Promega cat # E2750) was added to each well and incubated for 10 min. Plates were covered to protect from light. Luminescence was measured on the PHERAstar FS®.
The following controls were included in the data analysis: No virus, no compound (0.5% DMSO)=IC (maximal inhibitory control); Virus, no compound (0.5% DMSO)=NC (neutral control). Data were analyzed using an internal Novartis software (Helios). The means of the controls (NC, IC) were used to normalize the results to a % scale using the formula: % Control=100−(100*(Sample value−NC)/(IC−NC)).
For each compound, the software derived an EC50 using a 4-parameter logistical model.
Consider `N#Cc1ccc(CNC(=O)c2ccc3n(c2=O)CCN(CC2(S(=O)(=O)CCCO)CC2)C3=O)cc1F` [Example 23], for which the EC50 is 452 nM.
The result for `CS(=O)(=O)CCN1CCn2c(ccc(C(=O)NCc3ccc(Cl)cc3)c2=O)C1=O` [Example 51, N-(4-chlorobenzyl)-2-(2-(methylsulfonyl)ethyl)-1,6-dioxo-2,3,4,6-tetrahydro-1H-pyrido[1,2-a]pyrazine-7-carboxamide] reads 1870 nM; that for `CN(C)S(=O)(=O)C1(CN2CCn3c(ccc(C(=O)NCc4ccc(C#N)cc4)c3=O)C2=O)CC1` [Example 90-2], 34 nM; that for `N#CCS(=O)(=O)C1(CN2CCn3c(ccc(C(=O)NCc4ccc(Cl)cc4)c3=O)C2=O)CC1` [Example 108-1, N-(4-Chlorobenzyl)-2-((1-((cyanomethyl)sulfonyl)cyclopropyl)methyl)-1,6-dioxo-2,3,4,6-tetrahydro-1H-pyrido[1,2-a]pyrazine-7-carboxamide], 228 nM.
With `CS(=O)(=O)CCCN1CCn2c(c(C3CC3)cc(C(=O)NCc3ccc(Cl)cc3)c2=O)C1=O` [Example 130], the concentration for a half-maximal effect (EC50) is 13300 nM.
Regarding `O=C(NCc1ccc(Cl)cc1)c1cc(C2CC2)c2n(c1=O)CCN(CCN1CCCS1(=O)=O)C2=O` [Example 131], the EC50 was found to be 949 nM.
For the compound `O=C(NCc1ccc(Cl)cc1)c1cc(CC2CC2)c2n(c1=O)CCN(CCN1CCCS1(=O)=O)C2=O` [Example 133, N-(4-chlorobenzyl)-9-(cyclopropylmethyl)-2-(2-(1,1-dioxidoisothiazolidin-2-yl)ethyl)-1,6-dioxo-1,3,4,6-tetrahydro-2H-pyrido[1,2-a]pyrazine-7-carboxamide], the EC50 was determined as 1020 nM.
For the compound `CCc1cc(C(=O)NCc2ccc(Cl)cc2)c(=O)n2c1C(=O)N(CCN1CCCS1(=O)=O)CC2` [Example 135], the concentration for a half-maximal effect (EC50) was 749 nM.
For the compound `O=C(NCc1ccc(Cl)cc1)c1cc(C(F)F)c2n(c1=O)CCN(CCN1CCCS1(=O)=O)C2=O` [Example 144], the EC50 amounted to 10400 nM.
`CS(=O)(=O)CCCN1CCn2c(c(C(F)(F)F)cc(C(=O)NCc3ccc(Cl)cc3)c2=O)C1=O` [Example 146, N-(4-chlorobenzyl)-2-(3-(methylsulfonyl)propyl)-1,6-dioxo-9-(trifluoromethyl)-1,3,4,6-tetrahydro-2H-pyrido[1,2-a]pyrazine-7-carboxamide]: the half-maximal effective concentration (EC50) was 47200 nM.
For the compound `Cc1cc(C(=O)NCc2ccc(Cl)cc2)c(=O)n2c1C(=O)N(CC1(N3CCCS3(=O)=O)CC1)CC2` [Example 150], the EC50 is 67.7 nM.
In the case of `Cc1cc(C(=O)NCc2ccc(Cl)cc2)c(=O)n2c1C(=O)N(CCC1(S(C)(=O)=O)CC1)CC2` [Example 151], the 50% effective concentration (EC50) stood at 10000 nM.
The result for `Cc1cc(C(=O)NCc2ccc(Cl)cc2)c(=O)n2c1C(=O)N(CC1(CS(C)(=O)=O)CC1)CC2` [Example 154] reads 662 nM; that for `CN(CCN1CCn2c(c(F)cc(C(=O)NCc3ccc(Cl)cc3)c2=O)C1=O)S(C)(=O)=O` [Example 160, N-(4-chlorobenzyl)-9-fluoro-2-(2-(N-methylmethylsulfonamido)ethyl)-1,6-dioxo-1,3,4,6-tetrahydro-2H-pyrido[1,2-a]pyrazine-7-carboxamide], 3600 nM; that for `CS(=O)(=O)C1(CCN2CCn3c(c(F)cc(C(=O)NCc4ccc(Cl)cc4)c3=O)C2=O)CC1` [Example 165], 10000 nM.
As for `CS(=O)(=O)C1(CN2CCn3c(c(F)cc(C(=O)NCc4ccc(Cl)cc4)c3=O)C2=O)CC1` [Example 167], the EC50 was 57.3 nM.
The result for `CS(=O)(=O)CC1(CN2CCn3c(c(F)cc(C(=O)NCc4ccc(Cl)cc4)c3=O)C2=O)CC1` [Example 168] reads 1100 nM.
`CS(=O)(=O)C1(CCN2CCn3c(ccc(C(=O)NCc4ccc(Cl)cc4)c3=O)C2=O)CC1` [Example 170, N-(4-chlorobenzyl)-2-(2-(1-(methylsulfonyl)cyclopropyl)ethyl)-1,6-dioxo-1,3,4,6-tetrahydro-2H-pyrido[1,2-a]pyrazine-7-carboxamide]: the EC50 came out at 9030 nM.
For `NC1(CN2CCn3c(ccc(C(=O)NCc4ccc(Cl)cc4)c3=O)C2=O)CC1` [Example 197], the EC50 is 4790 nM.
As to `CCOC(=O)C1(CN2CCn3c(ccc(C(=O)NCc4ccc(Cl)cc4)c3=O)C2=O)CC1` [Example 207, ethyl 1-((7-((4-chlorobenzyl)carbamoyl)-1,6-dioxo-1,3,4,6-tetrahydro-2H-pyrido[1,2-a]pyrazin-2-yl)methyl)cyclopropane-1-carboxylate], the concentration giving a half-maximal response (EC50) stood at 3790 nM.
Turning to `O=C(NCc1ccc(Cl)cc1)c1ccc2n(c1=O)CCN(CC1(C(=O)N3CCC3)CC1)C2=O` [Example 208, 2-((1-(azetidine-1-carbonyl)cyclopropyl)methyl)-N-(4-chlorobenzyl)-1,6-dioxo-1,3,4,6-tetrahydro-2H-pyrido[1,2-a]pyrazine-7-carboxamide], the EC50 was 5180 nM.
On to `CN(C)C(=O)C1(CN2CCn3c(ccc(C(=O)NCc4ccc(Cl)cc4)c3=O)C2=O)CC1` [Example 209], for which the EC50 is 2490 nM.
The result for `O=C(NCc1ccc(Cl)cc1)c1ccc2n(c1=O)CCN(CC1(C(=O)N3CCOCC3)CC1)C2=O` [Example 211] reads 7810 nM.

For the origin of these results see patent US12466821B2 (Novartis AG, priority 2018, dated 2025).
